These results are taken from US6821976B2, “S-6-hydroxy-buspirone” (Bristol-Myers Squibb Company, priority 2001, dated 2004).

Series [1] is described as follows: Clinical studies in volunteers orally dosed with buspirone, blood plasma levels. The class given is in vivo, human. Particulars: compared to buspirone blood plasma levels.
The next series deals with T1, human 5-HT1A receptor (Homo sapiens, UniProt P08908).
T1 construct: expressed in transfected cells; host or cells: HEK293 cells
T1 sequence (P08908 1-422): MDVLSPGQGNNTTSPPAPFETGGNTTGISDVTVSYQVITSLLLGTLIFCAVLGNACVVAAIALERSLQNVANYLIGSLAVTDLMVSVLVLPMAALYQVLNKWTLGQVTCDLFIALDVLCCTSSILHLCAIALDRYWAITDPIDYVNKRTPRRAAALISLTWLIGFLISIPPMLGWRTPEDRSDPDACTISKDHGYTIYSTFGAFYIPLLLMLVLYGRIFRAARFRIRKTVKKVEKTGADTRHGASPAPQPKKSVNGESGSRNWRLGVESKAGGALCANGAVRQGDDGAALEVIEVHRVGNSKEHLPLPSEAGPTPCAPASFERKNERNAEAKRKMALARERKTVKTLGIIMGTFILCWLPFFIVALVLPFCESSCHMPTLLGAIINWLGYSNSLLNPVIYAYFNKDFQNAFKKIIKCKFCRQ
Briefly: 5-HT1A receptor binding assay. Particulars: preclinical studies. The procedure:
Membranes are prepared for binding using the human 5-HT1A receptor expressed in HEK293 cells. Cells are collected and ruptured using a dounce homogenizer. The cells are spun at 18000×g for 10 minutes and the pellet is resuspended in assay buffer, frozen in liquid nitrogen and kept at −80° C. until the day of the assay.
A total of 30 ug protein is used per well. The assay is carried out in 96-deep-well plates. The assay buffer is 50 mM HEPES containing 2.5 mM MgCl2 and 2 mM EGTA. The membrane preparation is incubated at 25° C. for 60 minutes with 0.1 nM to 1000 nM test compound and 1 nM 3H-8-OH-DPAT. […] serotonin serves as blocking agent to determine non-specific binding. The reaction is terminated by the addition of 1 ml of ice cold 50 mM HEPES buffer and rapid filtration through a Brandel Cell Harvester using Whatman GF/B filters. The filter pads are counted in an LKB Trilux liquid scintillation counter. IC50 values are determined using non-linear regression by Excel-fit.

Series [2] relates to Harlan Sprague-Dawley rat pups. Briefly: Rat pup isolation-induced ultrasonic vocalization test. The series is classed as in vivo. Particulars: for anxiolytic activity (ultrasonic vocalizations emitted by rat pups): dose levels of 0.3 and 1 mg/kg s.c. As to the method: Harlan Sprague-Dawley rat pups (male and female) were housed in polycarbonate cages with the dam until 9-11 days old. Thirty minutes before testing, pups were removed from the dam, placed into a new cage with a small amount of home bedding and brought into the lab and placed under a light to maintain body temperature at 37° C. Pups were then weighed, sexed, marked and returned to the litter group until behavioral assessment. Testing took place in a Plexiglas recording chamber that contained a metal plate maintained at (18-20° C.) with a 5×5 cm grid drawn on the plate. A microphone was suspended 10 cm above the plate to record ultrasonic vocalizations. Ultrasonic calls were recorded using the Noldus UltraVox system providing online analysis of the frequency and duration of calls. The number of grid cells entered by the pup was also collected by visual scoring. […] Immediately following the collection of the baseline measures, pups were injected with vehicle or drug subcutaneously at the nape of the neck and returned to its littermates. Thirty minutes later, pups were retested on each of the dependent measures (vocalization and grid cell crossings) to assess drug effects. Unless otherwise specified, each pup was used only once. Baseline differences and percent change from baseline for the frequency of ultrasonic vocalizations and grid cell crossings were analyzed using a one-way ANOVA. Bonferroni/Dunn post hoc comparisons were performed to assess the acute drug effects with vehicle control. Log-probit analysis was used to estimate the dose (milligrams per kilogram) of each agonist predicted to inhibit isolation-induced ultrasonic vocalizations by 50% (ID50). All comparison were made with an experimental type I error rate (α) set at 0.05.
Doses for each drug were administered in an irregular order across several litters. S-6-hydroxy-buspirone and racemic 6-hydroxy-buspirone were dissolved in physiological saline (0.9% NaCl; vehicle). All injections were administered subcutaneously in a volume of 10 ml/kg. Doses of the drug refer to weight of the salt.

Series [3] can be described thus: Pharmacokinetic studies with 6-hydroxy-buspirone, clearance from the bloodstream. Particulars: in vivo.

Consider `O=C1CC2(CCCC2)C(O)C(=O)N1CCCCN1CCN(c2ncccn2)CC1` (racemic) [6-hydroxy-buspirone], for which, in series [1], the “time course of blood plasma levels” value is given as “sustained”. At human 5-HT1A receptor, the “affinity for the human 5-HT1A receptor” value is given as “strong affinity”. In addition, the “anxiolytic activity (ultrasonic vocalizations emitted by rat pups)” value in series [2] is reported as “Statistically significant anxiolytic activity”. In addition, the “anxiolytic response in the rat pup ultrasonic vocalization test” value in series [2] (functional testing) is on record as “dose-dependent anxiolytic response”. In series [2] (rat pups, compared to the animals dosed with the single enantiomer), the “animal movement, measured by crossing grid boundary lines” value was “appeared to be reduced”.
For the compound `O=C1CC2(CCCC2)[C@H](O)C(=O)N1CCCCN1CCN(c2ncccn2)CC1` [S-6-hydroxy-buspirone], in series [3], the “clearance from the bloodstream compared with the R-enantiomer” value is listed as “cleared more slowly” and the “reduced clearance of S- over R-” value is given as “about three-fold”. The “anxiolytic activity (ultrasonic vocalizations emitted by rat pups)” value in series [2] is on record as “Statistically significant anxiolytic activity”.
Turning to `O=C1CC2(CCCC2)CC(=O)N1CCCCN1CCN(c2ncccn2)CC1` [buspirone], the “affinity for the human 5-HT1A receptor” value on human 5-HT1A receptor is reported as “strong affinity”.
